Measurements reported in paper PMC8954547, “Nonpeptidic Z360-Analogs Tagged with Trivalent Radiometals as Anti-CCK2R Cancer Theranostic Agents: A Preclinical Study” (Pharmaceutics, 2022).

Target: T1, human CCK2i4svR splice variant (Homo sapiens, UniProt P32239)
T1 construct: expressed in transfected cells; membrane homogenates
T1 sequence (P32239 1-516 isoform P32239-2): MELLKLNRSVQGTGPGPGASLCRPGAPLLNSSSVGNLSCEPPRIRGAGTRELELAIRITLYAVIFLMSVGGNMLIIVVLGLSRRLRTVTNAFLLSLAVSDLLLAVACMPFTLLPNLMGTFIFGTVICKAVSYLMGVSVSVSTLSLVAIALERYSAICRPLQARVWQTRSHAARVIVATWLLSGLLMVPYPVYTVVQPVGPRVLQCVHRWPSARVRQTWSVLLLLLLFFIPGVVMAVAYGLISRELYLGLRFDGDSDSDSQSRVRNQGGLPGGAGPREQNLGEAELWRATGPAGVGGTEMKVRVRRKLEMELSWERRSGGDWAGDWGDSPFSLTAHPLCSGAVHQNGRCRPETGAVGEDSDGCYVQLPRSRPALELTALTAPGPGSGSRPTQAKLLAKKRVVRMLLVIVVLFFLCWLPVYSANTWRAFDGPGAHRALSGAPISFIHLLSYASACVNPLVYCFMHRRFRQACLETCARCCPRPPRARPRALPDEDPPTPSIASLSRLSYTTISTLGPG
Assay: Competition binding against [125I][I-Tyr12,Leu15]gastrin-17 in HEK293-CCK2i4svR cell membranes
Settings: vs [125I][I-Tyr12,Leu15]gastrin-17, HEK293-CCK2i4svR cell membranes, 1 h 22 °C; mean ± SD
Method: Competition binding assays for the metal-free GAS1/2/3 and the corresponding metal-tagged [^natGa]Ga/[^natIn]In/[^natLu]Lu-GAS1/3 and [^natGa]Ga/[^natIn]In-GAS2 analogs were conducted against the [^125I][I-Tyr^12,Leu^15]gastrin-17 radioligand in membrane homogenates harvested from HEK293-CCK2i4svR cells, as previously described. Briefly, each of the above analogs, or unmodified Z360 serving as control, was incubated in triplicates of increasing concentrations (10^−13–10^−6 M) with [^125I][I-Tyr^12,Leu^15]gastrin-17 (50 pM, ≈40,000 cpm) and membrane homogenate in binding buffer (300 µL, pH 7.4, 50 mM HEPES, 1% BSA, 5.5 mM MgCl2, 35 µM bacitracin) for 1 h at 22 °C. Incubation was interrupted by rapid filtration through glass fiber filters (Whatman GF/B, presoaked in binding buffer for at least 1 h) on a Brandel Cell Harvester (Adi Hassel Ingenieur Büro, Munich, Germany) and subsequent rinsing with ice-cold washing buffer (10 mM HEPES pH 7.4, 150 mM NaCl). The radioactivity content of individual filters was measured in a gamma counter (automated multi-sample well-type instrument with a NaI(Tl) 3′ crystal, Canberra Packard Cobra^TM Quantum U5003/1, Auto-Gamma® counting system). The 50% inhibitory concentration (IC50) was determined by nonlinear regression analysis according to a one-site model using PRISM 6 (Graph Pad Software, San Diego, CA, USA). Values are expressed as mean ± standard deviation (SD) of three independent experiments performed in triplicate.

| SMILES | IC50 [nM] |
| --- | --- |
| CC(C)(C)C(=O)CN1C(=O)[C@H](NC(=O)Nc2cccc(C(=O)NCCOCCOCCOCCNC(=O)[C@H](CCC(=O)O)NC(=O)CCC(C(=O)O)N3CCN(CC(=O)[O-])CCN(CC(=O)[O-])CCN(CC(=O)[O-])CC3)c2)CN(C2CCCCC2)c2ccccc21.[In+3] (some centres unmarked) [[^natIn]In-GAS3] | 1.9 ± 0.2 |
| CC(C)(C)C(=O)CN1C(=O)[C@H](NC(=O)Nc2cccc(C(=O)NCCOCCOCCOCCNC(=O)[C@H](CCC(=O)O)NC(=O)CN3CCN(CC(=O)[O-])CCN(CC(=O)[O-])CCN(CC(=O)[O-])CC3)c2)CN(C2CCCCC2)c2ccccc21.[Lu+3] [[^natLu]Lu-GAS1] | 12.4 ± 0.2 |
| CC(C)(C)C(=O)CN1C(=O)[C@H](NC(=O)Nc2cccc(C(=O)NCCOCCOCCOCCNC(=O)[C@H](CCC(=O)O)NC(=O)CCC(C(=O)O)N3CCN(CC(=O)[O-])CCN(CC(=O)[O-])CCN(CC(=O)[O-])CC3)c2)CN(C2CCCCC2)c2ccccc21.[Ga+3] (some centres unmarked) [[^natGa]Ga-GAS3] | 4.8 ± 0.6 |
| CC(C)(C)C(=O)CN1C(=O)[C@H](NC(=O)Nc2cccc(C(=O)NCCOCCOCCOCCNC(=O)[C@H](CCC(=O)O)NC(=O)CCC(C(=O)[O-])N3CCN(CC(=O)[O-])CCN(CC(=O)[O-])CC3)c2)CN(C2CCCCC2)c2ccccc21.[In+3] (some centres unmarked) [[^natIn]In-GAS2] | 53.2 ± 2.7 |
| CC(C)(C)C(=O)CN1C(=O)[C@H](NC(=O)Nc2cccc(C(=O)NCCOCCOCCOCCNC(=O)[C@H](CCC(=O)O)NC(=O)CCC(C(=O)O)N3CCN(CC(=O)[O-])CCN(CC(=O)[O-])CCN(CC(=O)[O-])CC3)c2)CN(C2CCCCC2)c2ccccc21.[Lu+3] (some centres unmarked) [[^natLu]Lu-GAS3] | 4.3 ± 0.9 |
| CC(C)(C)C(=O)CN1C(=O)[C@H](NC(=O)Nc2cccc(C(=O)NCCOCCOCCOCCNC(=O)[C@H](CCC(=O)O)NC(=O)CCC(C(=O)[O-])N3CCN(CC(=O)[O-])CCN(CC(=O)[O-])CC3)c2)CN(C2CCCCC2)c2ccccc21.[Ga+3] (some centres unmarked) [[^natGa]Ga-GAS2] | 8.8 ± 1.6 |
| CC(C)(C)C(=O)CN1C(=O)[C@H](NC(=O)Nc2cccc(C(=O)NCCOCCOCCOCCNC(=O)[C@H](CCC(=O)O)NC(=O)CN3CCN(CC(=O)[O-])CCN(CC(=O)[O-])CCN(CC(=O)[O-])CC3)c2)CN(C2CCCCC2)c2ccccc21.[In+3] [[^natIn]In-GAS1] | 5 ± 1.1 |
| CC(C)(C)C(=O)CN1C(=O)[C@H](NC(=O)Nc2cccc(C(=O)NCCOCCOCCOCCNC(=O)[C@H](CCC(=O)O)NC(=O)CN3CCN(CC(=O)[O-])CCN(CC(=O)[O-])CCN(CC(=O)[O-])CC3)c2)CN(C2CCCCC2)c2ccccc21.[Ga+3] [[^natGa]Ga-GAS1] | 13.8 ± 2.7 |
